From patent US8791048B2, “Herbicidal compositions comprising 4-amino-3-chloro-5-fluoro-6-(4-chloro-2-fluoro-3-methoxyphenyl) pyridine-2-carboxylic acid or a derivative thereof and clomazone” (Dow Agrosciences LLC, priority 2012, dated 2014)

Tests used:
Type in all cases: in vivo
[1] = tested on: CYPRO Cyperus rotundus L. nutsedge, purple; assay: In-water applied greenhouse trial, weed control in transplanted paddy rice
Experimental: (§1) Results in Examples I and II are greenhouse trial results.
(§2) Weed seeds or nutlets of the desired test plant species were planted in puddled soil (mud) prepared by mixing a shredded, non-sterilized mineral soil (50.5 percent silt, 25.5 percent clay, and 24 percent sand, with a pH of about 7.6 and an organic matter content of about 2.9 percent) and water at a 1:1 volumetric ratio. The prepared mud was dispensed in 365 mL aliquots into 16-ounce (oz.) non-perforated plastic pots with a surface area of 86.59 square centimeters (cm^2) leaving a headspace of 3 centimeters (cm) in each pot. Rice seeds were planted in Sun Gro MetroMix® 306 planting mixture, which typically has a pH of 6.0 to 6.8 and an organic matter content of about 30 percent, in plastic plug trays. Seedlings at the second or third leaf stage of growth were transplanted into 860 mL of mud contained in 32-oz. non-perforated plastic pots with a surface area of 86.59 cm^2 4 days prior to herbicide application. The paddy was created by filling the headspace of the pots with 2.5 to 3 cm of water. When required to ensure good germination and healthy plants, a fungicide treatment and/or other chemical or physical treatment was applied. The plants were grown for 4-22 days in a greenhouse with an approximate 14 h photoperiod which was maintained at about 29° C. during the day and about 26° C. during the night. Nutrients were added as Osmocote® (17:6:10, N:P:K+minor nutrients) at 2 g per 16-oz. pot and 4 g per 32-oz. pot. Water was added on a regular basis to maintain the paddy flood, and supplemental lighting was provided with overhead metal halide 1000-Watt lamps as necessary. The plants were employed for testing when they reached the first through fourth true leaf stage.
(§3) Treatments consisted of the acid or esters of 4-amino-3-chloro-5-fluoro-6-(4-chloro-2-fluoro-3-methoxy-phenyl)pyridine-2-carboxylic acid (compound A) each formulated as an SC (suspension concentrate) and various herbicidal components alone and in combination. Forms of compound A were applied on an acid equivalent basis.
(§4) Other herbicidal components were applied on an active ingredient basis and consisted of clomazone formulated as Command® 3ME.
(§5) Treatment requirements for each compound or herbicidal component were calculated based upon the rates being tested, the concentration of active ingredient or acid equivalent in the formulation, an application volume of 2 mL per component per pot, and an application area of 86.59 cm^2 per pot.
(§6) For formulated compounds, a measured amount was placed in an individual 100 or 200 mL glass vial and was dissolved in a volume of 1.25% (v/v) Agri-Dex® crop oil concentrate to obtain application solutions.
(§7) Applications were made by injecting appropriate amounts of the application solutions with a pipetter, individually and sequentially, into the aqueous layer of the paddy. Control plants were treated in the same manner with the solvent blank. Applications were made so that all treated plant material received the same concentrations of acetone and crop oil concentrate.
(§8) The treated plants and control plants were placed in a greenhouse as described above and water was added as needed to maintain a paddy flood. After approximately 3 weeks the condition of the test plants as compared with that of the untreated plants was determined visually and scored on a scale of 0 to 100 percent where 0 corresponds to no injury or growth inhibition and 100 corresponds to complete kill.
(§9) Colby's equation was used to determine the herbicidal effects expected from the mixtures (Colby, S. R. 1967. Calculation of the synergistic and antagonistic response of herbicide combinations. Weeds 15:20-22.).
(§10) The following equation was used to calculate the expected activity of mixtures containing two active ingredients, A and B: Expected=A+B−(A×B/100)
(§11) A=observed efficacy of active ingredient A at the same concentration as used in the mixture. […]

[2] = tested on: SCPMA Bolboschoenus maritimus (L.) Palla clubrush, sea; assay: as above
Experimental: as §1, §2, §3, §4, §5, §6, §7, §8, §9, §10, §11

[3] = tested on: CYPDI Cyperus difformis L. sedge, smallflower umbrella; assay: as above
Experimental: as §1, §2, §3, §4, §5, §6, §7, §8, §9, §10, §11

[4] = tested on: LEFCH Leptochloa chinensis (L.) Nees; sprangletop, Chinese; assay: Postemergence foliar-applied greenhouse trial, weed control in direct-seeded rice
Text: as §1
(§12) Seeds or nutlets of the desired test plant species were planted in a soil matrix prepared by mixing a loam or sandy loam soil (e.g., 28.6 percent silt, 18.8 percent clay, and 52.6 percent sand, with a pH of about 5.8 and an organic matter content of about 1.8 percent) and calcareous grit in an 80 to 20 ratio. The soil matrix was contained in plastic pots with a volume of 1 quart and a surface area of 83.6 square centimeters (cm^2). When required to ensure good germination and healthy plants, a fungicide treatment and/or other chemical or physical treatment was applied. The plants were grown for 8-22 days in a greenhouse with an approximate 14 h photoperiod which was maintained at about 29° C. during the day and 26° C. during the night. Nutrients (Peters Excel® 15-5-15 5-Ca 2-Mg and iron chelate) were applied in the irrigation solution as needed and water was added on a regular basis. Supplemental lighting was provided with overhead metal halide 1000-Watt lamps as necessary. The plants were employed for testing when they reached the first through fourth true leaf stage.
as §3, with “(Compound A),” for “(compound A)”, “concentrate),” for “concentrate)”
(§13) Other herbicidal components were applied on an active ingredient basis and consisted of clomazone formulated as Command® 3ME. Treatment requirements were calculated based upon the rates being tested, the concentration of active ingredient or acid equivalent in the formulation, and a 12 mL application volume at a rate of 187 L/ha.
(§14) For treatments comprised of formulated compounds, measured amounts of compounds were placed individually in 25 mL glass vials and diluted in a volume of 1.25% (v/v) Agri-Dex® crop oil concentrated to obtain 12× stock solutions. […] Application solutions were prepared by adding an appropriate amount of each stock solution (e.g., 1 mL) and diluted to the appropriate final concentrations with the addition of 10 mL of an aqueous mixture of 1.25% (v/v) crop oil concentrate so that the final spray solutions contained 1.25+/−0.05% (v/v) crop oil concentrate.
(§15) All stock solutions and applications solutions were visually inspected for compound compatibility prior to application. Spray solutions were applied to the plant material with an overhead Mandel track sprayer equipped with a 8002E nozzles calibrated to deliver 187 L/ha over an application area of 0.503 m^2 at a spray height of 18 to 20 inches (46 to 50 cm) above average plant canopy height. Control plants were sprayed in the same manner with the solvent blank.
as §8, with “watered by sub-irrigation” for “water was added as needed”, “prevent wash-off of the test compounds.” for “maintain a paddy flood.”, “weeks,” for “weeks”
as §9, §10
(§16) A=observed efficacy of active ingredient A at the same concentration as used in the mixture.
(§17) B=observed efficacy of active ingredient B at the same concentration as used in the mixture.

[5] = tested on: IPOHE Ipomoea hederacea Jacq.; morningglory, ivyleaf; assay: as above
Text: as §1, §12
as §3, with “(Compound A),” for “(compound A)”, “concentrate),” for “concentrate)”
as §13, §14, §15
as §8, with “watered by sub-irrigation” for “water was added as needed”, “prevent wash-off of the test compounds.” for “maintain a paddy flood.”, “weeks,” for “weeks”
as §9, §10, §16, §17

[6] = tested on: DIGSA Digitaria sanguinalis (L.) Scop.; crabgrass, large; assay: as above
Text: as §1, §12
as §3, with “(Compound A),” for “(compound A)”, “concentrate),” for “concentrate)”
as §13, §14, §15
as §8, with “watered by sub-irrigation” for “water was added as needed”, “prevent wash-off of the test compounds.” for “maintain a paddy flood.”, “weeks,” for “weeks”
as §9, §10, §16, §17

[7] = tested on: ECHCO Echinochloa colona (L.) Link; junglerice; assay: as above
Text: as §1, §12
as §3, with “(Compound A),” for “(compound A)”, “concentrate),” for “concentrate)”
as §13, §14, §15
as §8, with “watered by sub-irrigation” for “water was added as needed”, “prevent wash-off of the test compounds.” for “maintain a paddy flood.”, “weeks,” for “weeks”
as §9, §10, §16, §17

[8] = tested on: ECHCG Echinochloa crus-galli (L.) Beauv.; barnyardgrass; assay: as above
Text: as §1, §12
as §3, with “(Compound A),” for “(compound A)”, “concentrate),” for “concentrate)”
as §13, §14, §15
as §8, with “watered by sub-irrigation” for “water was added as needed”, “prevent wash-off of the test compounds.” for “maintain a paddy flood.”, “weeks,” for “weeks”
as §9, §10, §16, §17

[9] = Compound A Acid 8.75 gae/ha, Clomazone 0 gai/ha
[10] = Compound A Acid 17.5 gae/ha, Clomazone 0 gai/ha
[11] = Compound A Acid 16 gae/ha, Clomazone 0 gai/ha
[12] = Compound A Acid 4.38 gae/ha, Clomazone 0 gai/ha
[13] = Compound A Acid 0 gae/ha, Clomazone 112 gai/ha
[14] = Compound A Acid 0 gae/ha, Clomazone 448 gai/ha
[15] = Compound A Benzyl Ester 0 gae/ha, Clomazone 112 gai/ha
[16] = Compound A Acid 0 gae/ha, Clomazone 224 gai/ha
[17] = Compound A Benzyl Ester 0 gae/ha, Clomazone 56 gai/ha
[18] = Compound A Benzyl Ester 0 gae/ha, Clomazone 224 gai/ha
[19] = Compound A Benzyl Ester 8 gae/ha, Clomazone 0 gai/ha
[20] = Compound A Benzyl Ester 16 gae/ha, Clomazone 0 gai/ha
[21] = Compound A Benzyl Ester 32 gae/ha, Clomazone 0 gai/ha
[22] = Compound A Benzyl Ester 4.38 gae/ha, Clomazone 0 gai/ha
[23] = Compound A Benzyl Ester 17.5 gae/ha, Clomazone 0 gai/ha

## COc1c(Cl)ccc(-c2nc(C(=O)O)c(Cl)c(N)c2F)c1F [Compound A Acid, 4-amino-3-chloro-6-(4-chloro-2-fluoro-3-methoxyphenyl)-5-fluoropyridine-2-carboxylic acid]
[1]; [9]
  Visual Weed Control (%) - 21 DAA Obs: 0%
[1]; [10]
  Visual Weed Control (%) - 21 DAA Obs: 30%
[1]; Compound A Acid 35 gae/ha, Clomazone 0 gai/ha
  Visual Weed Control (%) - 21 DAA Obs: 85%
[2]; [11]
  Visual Weed Control (%) - 22 DAA Obs: 0%
[2]; Compound A Acid 32 gae/ha, Clomazone 0 gai/ha
  Visual Weed Control (%) - 22 DAA Obs: 0%
[2]; Compound A Acid 64 gae/ha, Clomazone 0 gai/ha
  Visual Weed Control (%) - 22 DAA Obs: 30%
[3]; [11]
  Visual Weed Control (%) - 21 DAA Obs: 30%
[4]; [10]
  Visual Weed Control (%) - 19 DAA Obs: 55%
[5]; [12]
  Visual Weed Control (%) - 19 DAA Obs: 0%
[5]; [9]
  Visual Weed Control (%) - 19 DAA Obs: 10%
[6]; [12]
  Visual Weed Control (%) - 19 DAA Obs: 30%

## CC1(C)CON(Cc2ccccc2Cl)C1=O [Clomazone, 2-[(2-chlorophenyl)methyl]-4,4-dimethyl-3-isoxazolidinone]
[1]; [13]
  Visual Weed Control (%) - 21 DAA Obs: 0%
[1]; Compound A Benzyl Ester 0 gae/ha, Clomazone 448 gai/ha
  Visual Weed Control (%) - 21 DAA Obs: 0%
[2]; [14]
  Visual Weed Control (%) - 22 DAA Obs: 25%
[2]; [15]
  Visual Weed Control (%) - 21 DAA Obs: 0%
[2]; Compound A Benzyl Ester 0 gae/ha, Clomazone 670 gai/ha
  Visual Weed Control (%) - 19 DAA Obs: 0%
[3]; [16]
  Visual Weed Control (%) - 21 DAA Obs: 20%
[3]; [14]
  Visual Weed Control (%) - 21 DAA Obs: 40%
[7]; [17]
  Visual Weed Control (%) - 19 DAA Obs: 10%
[7]; [15]
  Visual Weed Control (%) - 19 DAA Obs: 10%
[7]; [18]
  Visual Weed Control (%) - 19 DAA Obs: 10%
[8]; [17]
  Visual Weed Control (%) - 19 DAA Obs: 10%
[8]; [15]
  Visual Weed Control (%) - 19 DAA Obs: 10%
[8]; [18]
  Visual Weed Control (%) - 19 DAA Obs: 10%
[4]; Table 1, Compound A Acid 0 gae/ha, Clomazone 56 gai/ha
  Visual Weed Control (%) - 19 DAA Obs: 0%
[4]; Table 1, Compound A Acid 0 gae/ha, Clomazone 112 gai/ha
  Visual Weed Control (%) - 19 DAA Obs: 0%
[4]; Table 1, Compound A Acid 0 gae/ha, Clomazone 224 gai/ha
  Visual Weed Control (%) - 19 DAA Obs: 15%
[4]; Table 2, Compound A Benzyl Ester 0 gae/ha, Clomazone 56 gai/ha
  Visual Weed Control (%) - 19 DAA Obs: 0%
[4]; Table 2, Compound A Benzyl Ester 0 gae/ha, Clomazone 112 gai/ha
  Visual Weed Control (%) - 19 DAA Obs: 0%
[4]; Table 2, Compound A Benzyl Ester 0 gae/ha, Clomazone 224 gai/ha
  Visual Weed Control (%) - 19 DAA Obs: 15%
[5]; [13]
  Visual Weed Control (%) - 19 DAA Obs: 20%
[5]; [16]
  Visual Weed Control (%) - 19 DAA Obs: 20%
[6]; Compound A Acid 0 gae/ha, Clomazone 56 gai/ha
  Visual Weed Control (%) - 19 DAA Obs: 0%
[6]; [13]
  Visual Weed Control (%) - 19 DAA Obs: 0%
[6]; [16]
  Visual Weed Control (%) - 19 DAA Obs: 0%

## COc1c(Cl)ccc(-c2nc(C(=O)OCc3ccccc3)c(Cl)c(N)c2F)c1F [Compound A Benzyl Ester]
[1]; [19]
  Visual Weed Control (%) - 21 DAA Obs: 70%
[1]; [20]
  Visual Weed Control (%) - 21 DAA Obs: 95%
[1]; [21]
  Visual Weed Control (%) - 21 DAA Obs: 90%
[2]; [22]
  Visual Weed Control (%) - 21 DAA Obs: 0%
[2]; [19]
  Visual Weed Control (%) - 19 DAA Obs: 0%
[2]; Compound A Benzyl Ester 8.75 gae/ha, Clomazone 0 gai/ha
  Visual Weed Control (%) - 21 DAA Obs: 0%
[2]; [20]
  Visual Weed Control (%) - 19 DAA Obs: 0%
[2]; [23]
  Visual Weed Control (%) - 21 DAA Obs: 0%
[2]; [21]
  Visual Weed Control (%) - 19 DAA Obs: 0%
[7]; [22]
  Visual Weed Control (%) - 19 DAA Obs: 65%
[8]; [22]
  Visual Weed Control (%) - 19 DAA Obs: 55%
[4]; [23]
  Visual Weed Control (%) - 19 DAA Obs: 30%
